{"source": "patent US20160340647A1", "about": "“COMPOSITIONS AND METHODS FOR INDUCING DIFFERENTIATION OF STEM CELLS” (BIODEMAK LLC, priority 2014, published 2016)", "key": {"[1]": {"test_system": "GSCs obtained from the U87 cell line", "assay": "Cell differentiation of GSCs (phase contrast morphology, western blot)", "format": "cell-based", "conditions": "for cell differentiation of GSCs (FIG. 6): treatment 2, two days", "procedure": "(§1) Sulindac was obtained from Sigma.\n(§2) Imaging and Immunocytochemistry: • Phase contrast pictures were obtained using an AmScope camera attached to a Nikon TMS microscope. Indirect immunocytochemistry (ICC) was performed as described previously. Briefly, cells were mechanically disaggregated and plated on poly-L-Lysine (PLL). For ICC the following markers were used: Ki67 for proliferative cells; nestin for NSC; beta-tubulin III for neurons; GFAP for astrocytes and 01 for oligodendrocytes. Epifluorescence microscopes (Leica and Nikon) were used for pictures, counting and visualization of the immunocytochemistry. The total number of neurons was quantified by counting a minimum of 15 fields per treatment in triplicates or quadruplicates and normalized vs. non-treated cultures."}, "[2]": {"test_system": "GSCs obtained from the U87 cell line", "assay": "Cell viability of GSCs after oxidizing agents (CellTiter 96 Aqueous One)", "conditions": "for GSC killing in combination with oxidizing agents (FIG. 7): treatment 2, 250 uM epimer, 200 uM TBHP"}, "[3]": {"test_system": "astrocytes", "assay": "Cell viability of astrocytes after TBHP (CellTiter 96 Aqueous One)", "format": "cell-based, mice", "conditions": "astrocytes plated seven days, 48 hours 500 μM sulindac", "source_text": "To obtain a pure culture of astrocytes, NSCs were differentiated in DMEM+10% FBS (both of Gibco) for seven days, trypsinized and re-plated in a new flask with the same medium. Under these circumstances, close to 100% of the cells become astrocytes (GFAP^+ cells).\nas §1\n(§3) Background absorbance was subtracted from each sample."}, "[4]": {"test_system": "RTP801 levels in GSCs", "assay": "RTP801 levels in GSCs"}, "[5]": {"test_system": "RTP801 levels in U87 cells", "assay": "RTP801 levels in U87 cells", "conditions": "U87 cells treated 72 hours at the same day of plating"}, "[6]": {"test_system": "NSCs", "assay": "Cell viability of NSCs after TBHP (CellTiter 96 Aqueous One)", "format": "cell-based, mice", "conditions": "TBHP two hours", "procedure": "(§4) NSCs were obtained from the hippocampi of PO BL6 mice and cultured in DMEM/F12 medium (Gibco) containing B27 (Gibco), epidermal growth factor (EGF, 20 ng/ml. Invitrogen) and basic fibroblast growth factor (bFGF 10 ng/ml. Peprotech). To induce cell differentiation, NSC where plated on poli-L-lysine (Sigma) were NSC spontaneously differentiate into neurons, astrocytes and oligodendrocytes as previously described (Lopez-Toledano M A & Shelanski M L (2004) J. Neurosci. 24(23):5439-5444).\nas §1, §3"}, "[7]": {"test_system": "NSCs", "assay": "Neuronal differentiation of NSCs (beta-tubulin III immunocytochemistry, number of neurons vs control)", "format": "cell-based, mice", "conditions": "treatment 1: floating NSCs 24 hours with 500 microMolar sulindac, plated on PLL another 24 hours", "procedure": "as §4, §1, §2"}, "[8]": {"conditions": "3 mM As2O3, 30 mM DCA or 400 nM DOX"}}}
{"smiles": "CC(C)Cc1ccc(C(C)C(=O)O)cc1", "note": "(centres unmarked) [ibuprofen]", "values": [{"measurement": "cell differentiation of GSCs (FIG. 6)", "setting": "[1]; 400 uM", "result": "no significant differentiation"}]}
{"smiles": "CC1=C(CC(=O)O)c2cc(F)ccc2/C1=C\\c1ccc([S@@+](C)[O-])cc1", "note": "[sulindac R epimer]", "values": [{"measurement": "GSC killing in combination with oxidizing agents (FIG. 7)", "setting": "[2]; [8]", "result": "enhanced killing"}]}
{"smiles": "CC1=C(CC(=O)O)c2cc(F)ccc2/C1=C\\c1ccc([S@+](C)[O-])cc1", "note": "[sulindac S-epimer]", "values": [{"measurement": "GSC killing in combination with oxidizing agents (FIG. 7)", "setting": "[2]; [8]", "result": "enhanced killing"}]}
{"smiles": "CC1=C(CC(=O)O)c2cc(F)ccc2/C1=C\\c1ccc(S(C)(=O)=O)cc1", "note": "[sulindac sulfone]", "values": [{"measurement": "cell differentiation of GSCs (FIG. 6)", "setting": "[1]; 25 uM", "result": "lower activity"}]}
{"smiles": "CC1=C(CC(=O)O)c2cc(F)ccc2/C1=C\\c1ccc([S+](C)[O-])cc1", "note": "(centres unmarked) [sulindac]", "values": [{"measurement": "neuronal differentiation of GSC by Western blot (nestin, DCX, actin)", "setting": "[1]; 500 microMolar sulindac", "result": "higher neuronal differentiation"}, {"measurement": "cell differentiation of GSCs (morphology) vs vehicle", "setting": "[1]; treatment 1: floating GSCs 24 hours with 500 microMolar sulindac, plated on PLL another 24 hours", "result": "clear differentiation effect"}, {"measurement": "cell differentiation of GSCs (FIG. 6)", "setting": "[1]; 500 uM", "result": "lower activity"}, {"measurement": "effect on TBHP-induced cell death of astrocytes", "setting": "[3]", "result": "very similar protection"}, {"measurement": "change of RTP801 levels", "setting": "[4]; GSCs at 0+72 (both floating and plated), 0+3 and 0+6", "result": "increase"}, {"measurement": "change of RTP801 levels", "setting": "[4]; GSCs, sulindac added at the 3rd dpp for 3 days", "result": "decrease in RTP801"}, {"measurement": "GSC sensitivity to different oxidative agents (FIG. 7)", "setting": "[2]; 48 hours, 500 uM sulindac, TBHP, 3 mM As2O3, 30 mM DCA or 400 nM DOX", "result": "increase GSC sensitivity"}, {"measurement": "effect on TBHP-induced cell death of floating undifferentiated GSCs", "setting": "[2]; treatment 1, 500 μM sulindac 24 hours, TBHP two hours", "result": "no effect"}, {"measurement": "effect on TBHP-induced cell death of plated GSCs", "setting": "[2]; treatment 2, 500 μM sulindac, TBHP two hours", "result": "increased TBHP-induced cell death"}, {"measurement": "change of RTP801 levels", "setting": "[5]", "result": "reduction in RTP801 levels"}, {"measurement": "effect on TBHP-induced death of NSCs", "setting": "[6]; treatment 1, floating NSCs, 500 μM sulindac", "result": "protected floating NSCs from TBHP-induced death"}, {"measurement": "effect on TBHP-induced cell death of NSCs", "setting": "[6]; treatment 2, plated NSCs, 500 μM sulindac 48 hours", "result": "complete protection against TBHP-induced cell death"}, {"measurement": "number of neurons (beta-tubulin III+) vs vehicle", "setting": "[7]", "result": "significant increase in the number of neurons"}]}
